Reference: patent publication US11512053B2, “Arginine methyltransferase inhibitors and uses thereof” (priority 2013, dated 2022)
Structures can show the parent of a compound that is named as a salt. Where two headings read alike, the source gives them in different places.

Legend:
[1] = molecular target: full-length human PRMT6 (Flag- and His-tagged) (Homo sapiens, UniProt Q96LA8); assay: PRMT6 Biochemical Assay (3H-SAM Flashplate, peptide substrate); details: read-out: Biochemical IC50 PRMT6
Summary of the method: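 Radiometric methyltransferase readout: tritium transfer onto a biotin-tagged histone H4 36-50 peptide bearing monomethyl K44 (75 nM), captured on streptavidin Flashplates after stopping with 400 uM unlabeled SAM. Enzyme is baculovirus-expressed Flag-PRMT6-His at 1 nM, given 30 min with compound at room temperature before adding 200 nM 3H-SAM and 250 nM cold SAM (pH 7.6 Bicine, 2% DMSO). Percent inhibition relative to max/min (1 mM SAH) controls, curve-fit to IC50.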

[2] = system: mono-methyl arginine in RKO cells; assay: RKO Methylation Assay, In Cell Western (ICW) for detection of mono-methyl arginine and DNA content; assay type: cell-based; details: Homo sapiens, RKO, 72 h
Summary of the method: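 RKO cells were treated with compound for 72 hours at 37 °C, methanol-fixed and stained overnight at 4 °C with anti-mono-methyl arginine (1:200), with DRAQ5 for DNA. Odyssey 800/700 nm intensity ratio was normalized to DMSO and 20 μM reference-compound controls. EC30 from triplicate nine-point curves.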

[3] = single experiment or average of multiple experiments
[4] = RKO cells, 72 hours compound incubation, mono-methyl arginine signal normalised to DNA content (DRAQ5), percent activation vs 20 μM reference compound, read-out: In Cell Western EC30
[5] = RKO cells, 72 hours incubation, mono-methyl arginine signal normalised to DNA content, single experiment or average of multiple experiments, read-out: In Cell Western EC30

Sequence of full-length human PRMT6 (Flag- and His-tagged) (Q96LA8 with tags, fused parts or gaps): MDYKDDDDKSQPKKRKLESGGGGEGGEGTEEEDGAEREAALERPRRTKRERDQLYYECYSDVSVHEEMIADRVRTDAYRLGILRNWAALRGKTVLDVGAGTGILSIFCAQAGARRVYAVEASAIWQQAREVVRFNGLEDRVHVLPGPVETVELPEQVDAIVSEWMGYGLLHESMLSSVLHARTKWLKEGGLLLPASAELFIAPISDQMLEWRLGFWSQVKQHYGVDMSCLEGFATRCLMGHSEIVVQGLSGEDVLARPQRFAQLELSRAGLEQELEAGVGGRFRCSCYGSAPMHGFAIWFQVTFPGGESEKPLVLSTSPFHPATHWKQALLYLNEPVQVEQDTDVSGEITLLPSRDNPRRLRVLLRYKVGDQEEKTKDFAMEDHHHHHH

CNCCN(C)Cc1c[nH]nc1[C@H]1CC[C@H](N(CCCOC)C(=O)CCOc2ccccc2)CC1 [Compound 247]
IC50 [1]: < 0.1 µM | IC50 [1, 3]: 0.0202 µM | EC30 [2, 4]: < 3 µM | EC30 [2, 5]: 0.698 µM

CNCCN(C)Cc1c[nH]nc1[C@H]1CC[C@H](C(=O)N(C)CCC(C)C)CC1 [Compound 209]
IC50 [1]: < 0.1 µM | IC50 [1, 3]: 0.0521 µM | EC30 [2, 4]: < 3 µM | EC30 [2, 5]: 0.916 µM

CNCCN(C)Cc1c[nH]nc1[C@H]1CC[C@@H](N(CCOc2ccccc2)C(=O)CCOC)CC1 [Compound 218]
IC50 [1]: < 0.1 µM | IC50 [1, 3]: 0.0303 µM

CNCCN(C)Cc1c[nH]nc1[C@H]1CC[C@H](N(CCOc2ccccc2)C(=O)CCCOC)CC1 [Compound 229]
IC50 [1]: < 0.1 µM | IC50 [1, 3]: 0.0291 µM | EC30 [2, 4]: < 3 µM | EC30 [2, 5]: 0.689 µM

CNCCN(C)Cc1c[nH]nc1[C@H]1CC[C@@H](N(CCOC)C(=O)CCC(C)C)CC1 [Compound 261]
IC50 [1]: < 0.1 µM | IC50 [1, 3]: 0.0317 µM | EC30 [2, 4]: < 3 µM | EC30 [2, 5]: 0.289 µM

CCOC[C@@H]1C[C@H](COCC)C[C@H](c2n[nH]cc2CN(C)CCNC)C1 [Compound 189]
IC50 [1]: 1.01 to 3 µM | IC50 [1, 3]: 1.47 µM | EC30 [2, 4]: 3.01 to 12 µM | EC30 [2, 5]: 6.62 µM

CNCCN(C)Cc1c[nH]nc1[C@H]1CC[C@H](O)CC1 [Compound 227, 4-[4-([methyl[2-(methylamino)ethyl]amino]methyl)-1H-pyrazol-3-yl]cyclohexan-1-ol trifluoroacetate]
IC50 [1]: < 0.1 µM | IC50 [1, 3]: 0.0178 µM | EC30 ([2]; read-out: In Cell Western EC30, RKO cells, 72 hours compound incubation, mono-methyl arginine signal normalised to DNA content (DRAQ5), percent activation vs 20 μM reference compound): < 3 µM | EC30 ([2]; read-out: In Cell Western EC30, RKO cells, 72 hours incubation, mono-methyl arginine signal normalised to DNA content, single experiment or average of multiple experiments): 1.53 µM

CNCCN(C)Cc1c[nH]nc1[C@H]1CC[C@@H](C(=O)N(C)CCOc2ccccc2)CC1 [Compound 259]
IC50 [1]: < 0.1 µM | IC50 [1, 3]: 0.0331 µM | EC30 [2, 4]: < 3 µM | EC30 [2, 5]: 0.408 µM

CNCCN(C)Cc1c[nH]nc1[C@H]1CC[C@H](N(CCCOC)C(=O)CC(C)C)CC1 [Compound 241]
IC50 [1]: < 0.1 µM | IC50 [1, 3]: 0.0328 µM | EC30 [2, 4]: < 3 µM | EC30 [2, 5]: 1.18 µM

CNCCN(C)Cc1c[nH]nc1C1CCC(C)(C)[C@H](C(=O)NCCCOC)C1 (some centres unmarked) [Compound 265]
IC50 [1]: 0.101 to 1 µM | IC50 [1, 3]: 0.174 µM

CNCCN(C)Cc1c[nH]nc1C1CCC(C)(C)[C@H](C(=O)NCCOC)C1 (some centres unmarked) [Compound 264]
IC50 [1]: 0.101 to 1 µM | IC50 [1, 3]: 0.133 µM

CNCCN(C)Cc1c[nH]nc1[C@H]1CC[C@@H](N(CC(C)C)C(=O)CCOC)CC1 [Compound 233]
IC50 [1]: < 0.1 µM | IC50 [1, 3]: 0.0479 µM | EC30 [2, 4]: < 3 µM | EC30 [2, 5]: 1.06 µM

CNCCN(C)Cc1cn(C)nc1[C@H]1CC[C@@]2(CC1)CC(C)(C)CO2 [Compound 205, Methyl([1-methyl-3-[(5S,8S)-3,3-dimethyl-1-oxaspiro[4.5]decan-8-yl]-1H-pyrazol-4-yl]methyl)[2-(methylamino)ethyl]amine hydrochloride]
IC50 [1]: < 0.1 µM | IC50 [1, 3]: 0.0715 µM | EC30 [2, 4]: < 3 µM | EC30 [2, 5]: 0.0144 µM

CNCCN(C)Cc1c[nH]nc1[C@H]1CC[C@H](C(=O)N(CCCOC)CCC(C)C)CC1 [Compound 213]
IC50 [1]: < 0.1 µM | IC50 [1, 3]: 0.0913 µM | EC30 [2, 4]: < 3 µM | EC30 [2, 5]: 0.433 µM

CNCCN(C)Cc1c[nH]nc1[C@H]1CC[C@H](N(CC(C)C)C(=O)CCCOC)CC1 [Compound 248]
IC50 [1]: < 0.1 µM | IC50 [1, 3]: 0.0326 µM | EC30 [2, 4]: < 3 µM | EC30 [2, 5]: 1.31 µM

CNCCN(C)Cc1c[nH]nc1[C@H]1CC[C@@H](C(=O)N(C)CCC(C)C)CC1 [Compound 210]
IC50 [1]: < 0.1 µM | IC50 [1, 3]: 0.0317 µM | EC30 [2, 4]: < 3 µM | EC30 [2, 5]: 0.28 µM

CNCCN(C)Cc1c[nH]nc1[C@H]1CC[C@H](C(=O)N(C)CCOc2ccccc2)CC1 [Compound 258]
IC50 [1]: < 0.1 µM | IC50 [1, 3]: 0.018 µM | EC30 [2, 4]: < 3 µM | EC30 [2, 5]: 0.303 µM

CNCCN(C)Cc1c[nH]nc1[C@H]1CC[C@@H](N(CC(C)C)C(=O)CCOc2ccccc2)CC1 [Compound 231]
IC50 [1]: < 0.1 µM | IC50 [1, 3]: 0.0147 µM | EC30 [2, 4]: < 3 µM | EC30 [2, 5]: 0.0967 µM

CNCCN(C)Cc1c[nH]nc1C1CCC(C)(C)[C@H](C(=O)OC)C1 (some centres unmarked) [Compound 256]
IC50 [1]: < 0.1 µM | IC50 [1, 3]: 0.0385 µM | EC30 [2, 4]: < 3 µM | EC30 [2, 5]: 0.316 µM

CNCCN(C)Cc1c[nH]nc1C1C[C@H](C(=O)N(C)CC(C)C)C(C)(C)[C@H](C(=O)N(C)CC(C)C)C1 (some centres unmarked) [Compound 267]
IC50 [1]: 3.01 to 10 µM | IC50 [1, 3]: ≥ 10 µM

CN(CCN)Cc1c[nH]nc1[C@H]1CC[C@]2(CC1)CC(C)(C)CO2 [Compound 208]
IC50 [1]: < 0.1 µM | IC50 [1, 3]: 0.0453 µM | EC30 [2, 4]: < 3 µM | EC30 [2, 5]: 0.0672 µM

CNCCN(C)Cc1c[nH]nc1[C@H]1CC[C@]2(CCCO2)OC1 [Compound 198]
IC50 [1]: 3.01 to 10 µM | IC50 [1, 3]: 8.54 µM | EC30 [2, 4]: < 3 µM | EC30 [2, 5]: 0.406 µM

CNCCN(C)Cc1c[nH]nc1[C@H]1CC[C@@H](N(CCCOC)C(=O)CCOc2ccccc2)CC1 [Compound 246]
IC50 [1]: < 0.1 µM | IC50 [1, 3]: 0.0283 µM | EC30 [2, 4]: < 3 µM | EC30 [2, 5]: 0.0799 µM

CNCCN(C)Cc1c[nH]nc1[C@H]1CC[C@H](N(CCOC)C(=O)CCC(C)C)CC1 [Compound 254]
IC50 [1]: < 0.1 µM | IC50 [1, 3]: 0.0176 µM | EC30 [2, 4]: < 3 µM | EC30 [2, 5]: 1.34 µM

CN(CCN)Cc1c[nH]nc1[C@H]1CC[C@@]2(CC1)CC(C)(C)CO2 [Compound 207]
IC50 [1]: < 0.1 µM | EC30 [2, 4]: < 3 µM | EC30 [2, 5]: 0.0121 µM

CNCCN(C)Cc1c[nH]nc1C1CCC2(CCCC2)OC1 (centres unmarked) [Compound 199]
IC50 [1]: < 0.1 µM | IC50 [1, 3]: 0.0365 µM | EC30 [2, 4]: < 3 µM | EC30 [2, 5]: 0.802 µM

CNCCN(C)Cc1c[nH]nc1[C@H]1CC[C@H](N(CC(C)C)C(=O)CC2CCOCC2)CC1 [Compound 193]
IC50 [1]: < 0.1 µM | IC50 [1, 3]: 0.0951 µM | EC30 [2, 4]: < 3 µM | EC30 [2, 5]: 1.44 µM

CNCCN(C)Cc1c[nH]nc1[C@H]1CC[C@H](C(=O)NCCOc2ccccc2)CC1 [Compound 211]
IC50 [1]: < 0.1 µM | IC50 [1, 3]: 0.0114 µM | EC30 [2, 4]: < 3 µM | EC30 [2, 5]: 0.155 µM

CNCCN(C)Cc1c[nH]nc1C1CCC(C)(C)[C@@H](C(=O)NCCC(C)C)C1 (stereo partly drawn) [Compound 263, (1S)-2,2-dimethyl-5-[4-({methyl[2-(methylamino)ethyl]amino}methyl)-1H-pyrazol-3-yl]-N-(3-methylbutyl)cyclohexane-1-carboxamide]
IC50 [1]: < 0.1 µM | IC50 [1, 3]: 0.0638 µM

CCOC[C@H]1CC(c2n[nH]cc2CN(C)CCNC)C[C@H](COCC)C1 (some centres unmarked) [Compound 188]
IC50 [1]: 1.01 to 3 µM | IC50 [1, 3]: 1.23 µM

CNCCN(C)Cc1c[nH]nc1C1CCC(C)(C)[C@@H](C(=O)NCC(C)C)C1 (some centres unmarked) [Compound 266]
IC50 [1]: < 0.1 µM | IC50 [1, 3]: 0.079 µM

CCN(C(=O)CCC(C)C)[C@H]1CC[C@H](c2n[nH]cc2CN(C)CCNC)CC1 [Compound 250]
IC50 [1]: < 0.1 µM | IC50 [1, 3]: 0.0143 µM

CNCCN(C)Cc1c[nH]nc1[C@H]1CC[C@@H](N(CCOc2ccccc2)C(=O)CCCOC)CC1 [Compound 228]
IC50 [1]: < 0.1 µM | IC50 [1, 3]: 0.0185 µM

CNCCN(C)Cc1cnn(C)c1[C@H]1CC[C@@]2(CC1)CC(C)(C)CO2 [Compound 245, Methyl ([2-[methyl([1-methyl-5-[(5S,8S)-3,3-dimethyl-1-oxaspiro[4.5]decan-8-yl]-1H-pyrazol-4-yl]methyl)amino]ethyl])amine trifluoroacetic acid salt]
IC50 [1]: < 0.1 µM | IC50 [1, 3]: 0.0622 µM

CNCCN(C)Cc1c[nH]nc1[C@H]1CC[C@H](N(CCCOC)C(=O)CCC(C)C)CC1 [Compound 243]
IC50 [1]: < 0.1 µM | IC50 [1, 3]: 0.0151 µM

CNCCN(C)Cc1c[nH]nc1[C@H]1CC[C@@H](N(CCCOC)C(=O)CC(C)C)CC1 [Compound 242]
IC50 [1]: < 0.1 µM | IC50 [1, 3]: 0.0417 µM
